For series [1], the system named is naturally aging mice (24 months old). Nature of the series: Feeding naturally aging 24-month-old mice with test feed containing 2 g/kg JAC-4. The settings on record: test feed 2 g/kg, 10 weeks. The series is classed as in vivo. The method, then: Feeding 24-month-old mice with the test feed containing 2 g/kg of the compound JAC-4 (equivalent to 200 mg JAC-4/kg body weight).
Mice were housed in the same conditions as Example 12. After feeding for 10 weeks, the mice were anesthetized. The whole blood was collected, allowed to stand for 30 min at room temperature, and centrifuged at 3000 rpm for 15 min. The supernatant, i.e., serum, was collected and analyzed by Hitachi 7100 automatic biochemical analyzer. Liver, spleen and kidney tissues of the mice were isolated on ice, fixed with 4% paraformaldehyde, or frozen at −80° C. The fixed tissues were processed into a paraffin section or frozen section with a thickness of 5 μm, stained with HE to visualize the morphological and pathological changes in the liver, spleen and kidney. The liver section was stained with oil red O for fat deposition and stained with periodic acid-Schiff (PAS) for glycogen. Total protein was extracted from the liver and spleen frozen at −80° C., and cell membrane proteins were extracted from the liver frozen at −80° C. Western blot was performed to detect the expression of JWA protein in liver and spleen tissues, the expression of p-AKT, AKT, p-GSK3β and GSK3β proteins in liver tissues, and the expression of glucose transporter (Glut 2) in cell membrane proteins of liver tissues. A biochemical kit (purchased from Nanjing Jiancheng Bioengineering Institute, Nanjing, China) was used to detect the activities of Superoxide dismutase (SOD), as well as the main rate-limiting enzymes of glucose and lipid metabolism in liver tissues. In all the experiments attention was paid to ethical guidelines for the investigation of experimental pain in conscious animals.

A short description of series [2]: HPLC analysis of compound in processed, Co60-sterilized test feed. The series is classed as physicochemical. The following applies: pelleted feed, Co60 irradiation. An excerpt:
The compound JAC-4 (purity>99%) was mixed with an equal amount of standard mouse feed. Specifically, 1 g of compound JAC-4 was thoroughly mixed with 1 g of basic feed materials; 2 g of the mixture was thoroughly mixed with 2 g of basic feed materials; 4 g of the mixture was thoroughly mixed with 4 g of basic feed materials, and so on, thereby obtaining two test feeds respectively containing 1 g/kg and 2 g/kg of the compound JAC-4. According to the standard operating procedures for feed, the test feeds were processed into pellets, vacuum packaged, and sterilized by a Co60 source irradiation. The feed processing was entrusted to a professional company. To verify that the compound JAC-4 was evenly distributed in the mixed feeds and not damaged in the structure during processing, the sterilized feeds were randomly sampled and fully extracted with organic solvents. The content of the compound JAC-4 was then measured by High Performance Liquid Chromatography and it was confirmed that the compound JAC-4 was not damaged and the content thereof met the requirements (FIGS. 38-40).

Series [3] concerns 12-month-old mice. In words: Feeding 12-month-old mice with test feed containing 1 g/kg JAC-4. In kind it is in vivo. The method, then: 12-month-old mice were housed in specific pathogen free (SPF) conditions at an ambient temperature of 22±2° C. and a relative humidity of 40%-60%, in day/night cycles of 12 h/12 h simulated by lighting. Mice were fed with sterile acidified water, common feeds (without compound JAC-4) or test feeds (with compound JAC-4).
In general, the daily feed consumption of each mouse is about 10% of its body weight. Therefore, when the mice consume 1 g/kg of JAC-4 experimental feed, it is equivalent to the daily intake of 100 mg/kg of JAC-4. The mice were weighed every two weeks from the start of feeding and scored on the aging appearance every two weeks from the sixth week. The higher the score, the more obvious the aging appearance. The mice were photographed monthly and changes in appearance were recorded. In all the experiments attention was paid to ethical guidelines for the investigation of experimental pain in conscious animals.

Series [4] has as its system JWA gene. Nature of the series: JWA reporter gene assay (dual-luciferase) in HBE cells. The following applies: 24 hours treatment. The series is classed as cell-based, human. An excerpt: 2012 bp upstream of the JWA transcription start site (referred to “JWA promoter sequence” hereafter) was amplified by RT-PCR according to the human-derived JWA promoter sequence (FIG. 35), and inserted into a pGL3-Neo vector by using KpnI and NheI restriction enzyme sites, thereby yielding a recombinant vector (FIG. 36) containing the JWA promoter sequence. The recombinant vector was transferred into E. coli. (DH5a). Positive clones were sequenced to verify accuracy, thereby obtaining a neomycin-resistant reporter plasmid containing the JWA gene promoter. The plasmid and corresponding strains were stored at −70° C. for use.
Human bronchial epithelial (HBE) cells were cultured at a density of 3000 cells per well in a 384-well plate and allowed to adhere together. […]
After incubation, the 384-well plate was taken out, allowing the reagents and cells to equilibrate to room temperature of 18-22° C. […] The luciferase activity was analyzed by using a Dual-Luciferase Reporter Assay kit (Promega) and measured by a chemiluminescence analyzer (3010 C chemiluminescence analyzer). […]

In series [5] the test system is JWA protein. Nature of the series: Western blot of JWA protein expression in HBE cells. In kind it is cell-based, human. The settings on record: 24 hours and 48 hours, 1, 10, and 100 μmol/L. As for the experimental part: The HBE cells in the logarithmic growth phase were digested, plated at a density of 5×10^5/cell onto a 60 mm cell culture dish, and incubated in different doses of the compound JAC-4 for 24 hours or 48 hours, respectively. The cells were then treated with 0.18 mL of radio immunoprecipitation assay (RIPA, containing 0.5% PMSF) cell lysate for protein extraction, and centrifuged at 12,000×g for 15 minutes. The supernatant was collected and the protein concentration was measured. The proteins were heated and separated by electrophoresis through 12.5% polyacrylamide gel. 70 μg of the heated proteins was loaded into each well and separated by electrophoresis at 60 V for 30 minutes and 90 V for 1-1.5 hours. The proteins were then transferred from the gel to a PVDF membrane using a mini-genie transfer apparatus. The PVDF membrane was blocked with 5% skim milk, incubated at room temperature for 1-2 hours, and washed with TBST (containing 0.1% Tween 20). The washing step was repeated 3 times for 5 minutes each time. The blocked membrane was incubated overnight with primary antibody at 4° C., and then washed with TBS (containing 0.1% Tween 20). The washing step was repeated 3 times for 5 minutes each time. The blocked membrane was incubated at room temperature for 1-2 hours with secondary antibody, and then washed with TBST (containing 0.1% Tween 20). […]
On the technique in general: In western blotting, separated proteins are transferred to a membrane and probed.

The mark [6] stands for this setting: test feed 1 g/kg vs common feed.

Structures are written as SMILES.

Regarding `c1ccc(CSc2nnc(C3COc4ccccc4O3)o2)nc1` (centres unmarked) [JAC-4], in series [1], the “SOD in the liver” value is “increase”, the “SOD in the serum” value is reported as “increase”, the “glycogen synthase in the liver” value is given as “increased” and the “rate-limiting enzyme related to glucose decomposition in the liver” value is reported as “increased”. Further, in series [1], the serum glucose entry was “significantly reduced” and the serum triglycerides entry is “significantly reduced”. For the same molecule, in series [1] (HE staining), the “age-related inflammatory cell infiltration around the central vein of the liver” value was “significantly reduced”; the “morphology of liver, kidney and spleen” value is “did not produce observable abnormal changes”. The “glycogen synthesis in the liver” value in series [1] (PAS staining) is “increased”. For the same molecule, in series [1] (Western blot), the “AKT phosphorylation in liver” value is given as “activated”, the GSK3β in liver result is “inhibited”, the “Glut 2 expression in liver cell membranes” value is “increased” and the “expression of JWA protein in liver tissue” value is listed as “increased significantly”. Further, the “expression of JWA protein in spleen tissue” value in series [1] (Western blot) was “increased significantly”. Besides, the “integrity of compound in feed after processing and sterilization” value in series [2] was “not damaged”. The body weight entry in series [3] (22nd week, test feed 1 g/kg (100 mg/kg daily) vs common feed) is reported as “no statistical difference”. For the same molecule, in series [3] (setting [6]), the hair loss entry was “significant decrease” and the “score of aging appearance” value is reported as “significant decrease”. Also, the “activation of JWA gene expression (luciferase reporter)” value in series [4] is recorded as “sharp dose-effect relationship”. In addition, in series [5], the “expression level of JWA protein” value is “enhanced”.

The values above are taken from US20220023278A1, “ANTI-AGING METHOD COMPRISING APPLYING JWA GENE” (Simcere Pharmaceutical Co., Ltd., priority 2019, published 2022).
